Where two headings read alike, the source gives them in different places.
Experiments:
human CB1 receptors = human CB1 receptors (Homo sapiens (Human), UniProt P21554); experiment: cAMP assay, CHO cells expressing human CB1 receptors; format: cell-based
Description: (§1) CHO cells expressing human CB1 or CB2 receptors are seeded 17-24 hours prior to the experiment 50.000 cells per well in a black 96 well plate with flat clear bottom (Corning Costar #3904) in DMEM (Invitrogen No. 31331), 1×HT supplement, with 10% fetal calf serum and incubated at 5% CO2 and 37° C. in a humidified incubator. The growth medium was exchanged with Krebs Ringer Bicarbonate buffer with 1 mM IBMX and incubated at 30° C. for 30 min. Compounds were added to a final assay volume of 100 μl and incubated for 30 min at 30° C. […] The time-resolved energy transfer is measured by a TRF reader (Evotec Technologies GmbH), equipped with a ND:YAG laser as excitation source. The plate is measured twice with the excitation at 355 nm and at the emission with a delay of 100 ns and a gate of 100 ns, total exposure time 10 s at 730 (bandwidth30 nm) or 645 nm (bandwidth 75 nm), respectively. The FRET signal is calculated as follows: FRET=T730-Alexa730-P(T645-B645) with P=Ru730-B730/Ru645-B645, where T730 is the test well measured at 730 nM, T645 is the test well measured at 645 nm, B730 and B645 are the buffer controls at 730 nm and 645 nm, respectively. cAMP content is determined from the function of a standard curve spanning from 10 μM to 0.13 nM cAMP.
(§2) EC50 values were determined using Activity Base analysis (ID Business Solution, Limited).

human CB2 receptors = human CB2 receptors (Homo sapiens (Human), UniProt P34972); experiment: cAMP assay, CHO cells expressing human CB2 receptors; format: cell-based
human CB2 receptors, sequence (P34972 whole entry): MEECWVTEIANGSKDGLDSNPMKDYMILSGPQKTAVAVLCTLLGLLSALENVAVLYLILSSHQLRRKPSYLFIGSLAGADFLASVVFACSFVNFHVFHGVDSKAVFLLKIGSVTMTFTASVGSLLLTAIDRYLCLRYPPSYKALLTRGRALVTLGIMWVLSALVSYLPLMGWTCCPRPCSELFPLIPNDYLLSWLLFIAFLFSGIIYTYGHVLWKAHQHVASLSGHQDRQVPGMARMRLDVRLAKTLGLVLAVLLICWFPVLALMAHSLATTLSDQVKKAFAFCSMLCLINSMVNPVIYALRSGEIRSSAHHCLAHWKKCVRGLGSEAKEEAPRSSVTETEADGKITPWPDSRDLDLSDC
Description: as §1, §2

[1] = functional cAMP assay, CHO cells expressing human CB1, read-out: EC50 CB1 human
[2] = functional cAMP assay, CHO cells expressing human CB2, read-out: EC50 CB2 human

human CB1 receptors, sequence (P21554 whole entry): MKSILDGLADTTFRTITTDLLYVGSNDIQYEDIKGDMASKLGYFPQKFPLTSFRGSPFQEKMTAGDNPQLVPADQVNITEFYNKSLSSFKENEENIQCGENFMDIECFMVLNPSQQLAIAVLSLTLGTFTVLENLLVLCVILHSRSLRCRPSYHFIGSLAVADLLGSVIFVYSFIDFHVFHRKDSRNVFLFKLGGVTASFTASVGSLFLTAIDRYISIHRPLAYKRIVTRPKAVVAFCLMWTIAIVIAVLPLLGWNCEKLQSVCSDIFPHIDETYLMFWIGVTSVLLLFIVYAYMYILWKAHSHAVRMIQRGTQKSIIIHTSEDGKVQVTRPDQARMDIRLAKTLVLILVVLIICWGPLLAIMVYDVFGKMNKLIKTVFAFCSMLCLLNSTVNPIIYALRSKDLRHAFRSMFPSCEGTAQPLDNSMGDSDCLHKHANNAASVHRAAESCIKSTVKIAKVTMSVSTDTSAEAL

SMILES | EC50 (human CB1 receptors; [1]) [nM] | EC50 (human CB2 receptors; [2]) [nM] | EC50 (human CB1 receptors) [nM] | EC50 (human CB2 receptors) [nM]
CCC1(CC)COC(c2cc(OCC(F)(F)F)c(N3CC(F)(F)C3)cn2)=N1 [Example 30, 2-[5-(3,3-difluoroazetidin-1-yl)-4-(2,2,2-trifluoroethoxy)pyridin-2-yl]-4,4-diethyl-5H-1,3-oxazole] | > 10000 | 2.6 | – | –
FC(F)(F)COc1cc(C2=NC3(CCCCC3)CO2)ncc1C1CC1 [Example 31, 2-[5-cyclopropyl-4-(2,2,2-trifluoroethoxy)pyridin-2-yl]-3-oxa-1-azaspiro[4.5]dec-1-ene] | > 10000 | 19.4 | – | –
CC(C)(C)c1nc(-c2cc(OCC3CC3)c(N3CC(F)(F)C3)cn2)no1 [Example 32, 5-tert-butyl-3-[4-(cyclopropylmethoxy)-5-(3,3-difluoroazetidin-1-yl)pyridin-2-yl]-1,2,4-oxadiazole] | > 10000 | 8.6 | – | –
CC(C)(C)c1nc(-c2cc(OCC(F)(F)F)c(C3CC3)cn2)no1 [Example 33, 5-tert-butyl-3-[5-cyclopropyl-4-(2,2,2-trifluoroethoxy)pyridin-2-yl]-1,2,4-oxadiazole] | – | – | > 10000 | 6.9
CC(C)(C)c1nc(-c2cc(OCC3CC3)c(N3CCC34COC4)cn2)no1 [Example 35, 1-[6-(5-tert-butyl-1,2,4-oxadiazol-3-yl)-4-(cyclopropylmethoxy)pyridin-3-yl]-6-oxa-1-azaspiro[3.3]heptane] | > 10000 | 32.8 | – | –
CC(C)c1nc(-c2cc(OCC(F)(F)F)c(C3CC3)cn2)no1 [Example 36, 3-[5-cyclopropyl-4-(2,2,2-trifluoroethoxy)pyridin-2-yl]-5-propan-2-yl-1,2,4-oxadiazole] | > 10000 | 20.9 | – | –
OC1(c2nc(-c3cc(OCC(F)(F)F)c(C4CC4)cn3)no2)CC1 [Example 37, 1-[3-[5-cyclopropyl-4-(2,2,2-trifluoroethoxy)pyridin-2-yl]-1,2,4-oxadiazol-5-yl]cyclopropan-1-ol] | > 10000 | 236 | – | –
CC1(c2nc(-c3cc(OCC(F)(F)F)c(C4CC4)cn3)no2)COC1 [Example 38, 3-[5-cyclopropyl-4-(2,2,2-trifluoroethoxy)pyridin-2-yl]-5-(3-methyloxetan-3-yl)-1,2,4-oxadiazole] | > 10000 | 128 | – | –
FC(F)(F)COc1cc(-c2ncon2)ncc1C1CC1 [Example 39, 3-[5-cyclopropyl-4-(2,2,2-trifluoroethoxy)pyridin-2-yl]-1,2,4-oxadiazole] | > 10000 | 434 | – | –
CC(C)(C)c1noc(-c2cc(OCC(F)(F)F)c(C3CC3)cn2)n1 [Example 40, 3-tert-butyl-5-[5-cyclopropyl-4-(2,2,2-trifluoroethoxy)pyridin-2-yl]-1,2,4-oxadiazole] | > 10000 | 2.2 | – | –
CC1(C)CN=C(c2cc(OCC(F)(F)F)c(C3CC3)cn2)O1 [Example 41, 2-[5-cyclopropyl-4-(2,2,2-trifluoroethoxy)pyridin-2-yl]-5,5-dimethyl-4H-1,3-oxazole] | > 10000 | 53.9 | – | –
CC(C)c1noc(-c2cc(OCC(F)(F)F)c(C3CC3)cn2)n1 [Example 42, 5-[5-cyclopropyl-4-(2,2,2-trifluoroethoxy)pyridin-2-yl]-3-propan-2-yl-1,2,4-oxadiazole] | > 10000 | 2.3 | – | –
CC(C)(C)c1nc(-c2cc(OCC3CC3)c(S(C)(=O)=O)cn2)no1 [Example 43, 5-tert-butyl-3-[4-(cyclopropylmethoxy)-5-methylsulfonylpyridin-2-yl]-1,2,4-oxadiazole] | > 10000 | 40.9 | – | –
CC(C)c1nc(-c2cc(OCC(F)(F)F)c(N3CC(F)(F)C3)cn2)no1 [Example 45, 3-[5-(3,3-difluoroazetidin-1-yl)-4-(2,2,2-trifluoroethoxy)pyridin-2-yl]-5-propan-2-yl-1,2,4-oxadiazole] | > 10000 | 77.8 | – | –
